Test results from US7696165B2 (Albany Molecular Research, Inc., priority 2006, dated 2010).
Values after ≈ are worked out from the molar mass of the structure shown.

Test system: concanavalin A (ConA)-stimulated murine splenocytes
Experiment: Concanavalin A-stimulated murine splenocyte assay ([3H]thymidine incorporation)
Format: cell-based, mouse (BALB/c)
Procedure: Male BALB/c mice, at 5 to 7 weeks of age, were sacrificed by CO2 inhalation. Spleens were removed and dissociated by pushing through a nylon cell strainer. The splenocytes were washed in RPMI 1640/5% fetal calf serum (FCS) and pelleted at 400×g. Red blood cells were then lysed by resuspending the cell pellet in ACK lysis buffer (150 mM NH4Cl, 1 mM KHCO3, 0.1 mM EDTA, 3 mL per spleen) for 10 min at room temperature. After pelleting at 400×g, the cells were washed by resuspending in RPMI 1640/5% FCS and repelleting. The cell pellet was resuspended in RPMI 1640/5% FCS and again passed through a cell strainer to remove cell aggregates. The cells were then counted and adjusted to 2×10^6 cells/ml in RPMI 1640/10% FCS/50 μM 2-mercaptoethanol. Cell viability was assessed by Trypan blue staining. […] The cells were cultured in a 37° C. CO2 incubator for 2 days and then pulsed with 1 μCi of [^3H]thymidine for 6 hours. Cells were harvested onto filtermats with a TomTec 96 well plate harvester and lysed with H2O. The filtermat and scintillation fluid were sealed in a plastic sleeve. [^3H]thymidine incorporation was measured with a Wallac Trilux plate counter. Initial screens were done at a fixed value of 100 ng/ml test compound. IC50s were calculated from 7 point concentration-response curves using graphPad software.

IC50 [µg/mL]	SMILES	immunosuppressive potency compared to cyclosporin A (FIG. 1, ConA stimulated murine splenocyte assay)
0.012 (≈ 0.0098 µM)	CC#CC#CC[C@@H](C)[C@@H](O)[C@H]1C(=O)N[C@@H](CC)C(=O)N(C)CC(=O)N(C)[C@@H](CC(C)C)C(=O)N[C@@H](C(C)C)C(=O)N(C)[C@@H](CC(C)C)C(=O)N[C@@H](C)C(=O)N[C@H](C)C(=O)N(C)[C@@H](CC(C)C)C(=O)N(C)[C@@H](CC(C)C)C(=O)N(C)[C@@H](C(C)C)C(=O)N1C [Example 27, cyclosporin diyne]	–
0.032 (≈ 0.0261 µM)	C/C=C\C#CC[C@@H](C)[C@@H](O)[C@H]1C(=O)N[C@@H](CC)C(=O)N(C)CC(=O)N(C)[C@@H](CC(C)C)C(=O)N[C@@H](C(C)C)C(=O)N(C)[C@@H](CC(C)C)C(=O)N[C@@H](C)C(=O)N[C@H](C)C(=O)N(C)[C@@H](CC(C)C)C(=O)N(C)[C@@H](CC(C)C)C(=O)N(C)[C@@H](C(C)C)C(=O)N1C [Example 14, cis-cyclosporin yne-ene]	–
0.077 (≈ 0.0616 µM)	C/C=C\C#CC#CC[C@@H](C)[C@@H](O)[C@H]1C(=O)N[C@@H](CC)C(=O)N(C)CC(=O)N(C)[C@@H](CC(C)C)C(=O)N[C@@H](C(C)C)C(=O)N(C)[C@@H](CC(C)C)C(=O)N[C@@H](C)C(=O)N[C@H](C)C(=O)N(C)[C@@H](CC(C)C)C(=O)N(C)[C@@H](CC(C)C)C(=O)N(C)[C@@H](C(C)C)C(=O)N1C [Example 35, cis-cyclosporin yne-yne-ene]	–
0.012 (≈ 0.00991 µM)	C#CC#CC[C@@H](C)[C@@H](O)[C@H]1C(=O)N[C@@H](CC)C(=O)N(C)CC(=O)N(C)[C@@H](CC(C)C)C(=O)N[C@@H](C(C)C)C(=O)N(C)[C@@H](CC(C)C)C(=O)N[C@@H](C)C(=O)N[C@H](C)C(=O)N(C)[C@@H](CC(C)C)C(=O)N(C)[C@@H](CC(C)C)C(=O)N(C)[C@@H](C(C)C)C(=O)N1C [Example 25, cyclosporine diyne]	two times more potent over cyclosporin A
